≈ marks a conversion by molar mass, not a printed value.
Key:
in vivo = settings: male, Dutch Belted, rabbit, topical or ocular, 4 mg
Source text: The animals' eyes were examined by a board certified veterinary ophthalmologist using a slitlamp biomicroscope and an indirect ophthalmoscope. The exams occurred predose and on the indicated study days prior to sacrifice, as applicable. On specified days, at least two animals/time point were euthanized for the collection of blood (for plasma) and ocular tissues (aqueous humor, vitreous humor, retina, and sclera/choroid-RPE).
For the initial study, the animals were acclimated to study conditions for 16 days prior to dose administration. At dosing, the animals weighed 1721 to 1941 g and were 5 months of age. All animals were housed in individual, suspended, stainless steel cages during acclimation and the test period. Certified Hi-Fiber Rabbit Diet #5325 (PMI) was provided. Water was provided fresh daily, ad libitum. Environmental controls for the animal room were set to maintain a temperature of 16 to 22° C. (Deviation), a relative humidity of 50±20% (Deviation), and a 12-hour light/12-hour dark cycle. […]
The dosing formulation was drawn up into a 1-mL luer-lock syringe using a standard 21-gauge, 1-inch needle; any bubbles were expressed, and the standard needle was replaced by a 30-gauge microneedle 700 μm in length. […] Any dosing observations were recorded. […]

[1] = Ocular distribution and pharmacokinetics after suprachoroidal injection of CLS-AX, 0.03 or 0.1 mg/eye (second study); type: in vivo, male pigmented Dutch Belted rabbits; settings: for tmax: Retina; for half-life: sclera/choroid-RPE (SCR), SCR; for Cmax: topical or ocular, study day 2
[2] = Solubility of the API (product profile); type: physicochemical

half-life (in vivo): 102 days
Cmax (in vivo; Cmax): 857 ng/mL
eyes having quantifiable levels in retina ([1]; 0.03 mg/eye, days 31 and 61): 1 of 4
eyes having quantifiable levels in retina ([1]; 0.1 mg/eye, Days 45 through 66): 1 of 4
tmax ([1]; 0.03 mg/eye): 1 days
tmax ([1]; 0.1 mg/eye): 1 days
concentration at 15 day ([1]; male, Dutch Belted, rabbit, other: suprachoroidal injection, retina, 0.03 mg/eye, by day 15, essentially below, read-out: mean retina concentrations (limit of quantitation)): < 16.7 ng/g
half-life ([1]; male, Dutch Belted, rabbit, other: suprachoroidal injection, 0.03 mg/eye): 10.7 days
half-life ([1]; male, Dutch Belted, rabbit, other: suprachoroidal injection, 0.1 mg/eye): 15.8 days
Cmax ([1]; male, Dutch Belted, rabbit, retina, 0.03 mg/eye): 4480 ng/g
Cmax ([1]; male, Dutch Belted, rabbit, retina, 0.1 mg/eye): 6260 ng/g
mean AUC0-t, higher dose versus lower dose ([1]; retina, 0.1 vs 0.03 mg/eye): 1.6 fold
mean Cmax, higher dose versus lower dose ([1]; retina, 0.1 vs 0.03 mg/eye): 1.4 fold
Solubility (solvent) [2]: DMSO
solubility ([2]; in water): 0.2 µg/mL (≈ 0.517 µM)
SMILES: CNC(=O)c1ccccc1Sc1ccc2c(/C=C/c3ccccn3)n[nH]c2c1 [Axitinib]
